# How the values were obtained:
# [1] = biological target: T1, NDST2 (ND activity) (Homo sapiens, UniProt P52849); experiment: Screening of ND activity inhibitors using the plate to which NAH-biotin was adhered via avidin (JM403 ELISA); format: biochemical; conditions: final concentration 100, 10 or 1 μg/ml; for ranking of ability to inhibit ND activity among NAH, HP, NSDS-HP and HSBK: FIG. 8; for function to inhibit ND activity (rate of change, FIG. 8): NDST enzyme liquid 80 times diluted, 37° C. 60 minutes
# T1 construct: baculovirus gp67 signal peptide (39 amino acids) (N, cleaved yes); made in house; host or cells: Sf21 insect cells infected with recombinant baculovirus (virus stock made in Sf9)
# T1 sequence (P52849 79-883): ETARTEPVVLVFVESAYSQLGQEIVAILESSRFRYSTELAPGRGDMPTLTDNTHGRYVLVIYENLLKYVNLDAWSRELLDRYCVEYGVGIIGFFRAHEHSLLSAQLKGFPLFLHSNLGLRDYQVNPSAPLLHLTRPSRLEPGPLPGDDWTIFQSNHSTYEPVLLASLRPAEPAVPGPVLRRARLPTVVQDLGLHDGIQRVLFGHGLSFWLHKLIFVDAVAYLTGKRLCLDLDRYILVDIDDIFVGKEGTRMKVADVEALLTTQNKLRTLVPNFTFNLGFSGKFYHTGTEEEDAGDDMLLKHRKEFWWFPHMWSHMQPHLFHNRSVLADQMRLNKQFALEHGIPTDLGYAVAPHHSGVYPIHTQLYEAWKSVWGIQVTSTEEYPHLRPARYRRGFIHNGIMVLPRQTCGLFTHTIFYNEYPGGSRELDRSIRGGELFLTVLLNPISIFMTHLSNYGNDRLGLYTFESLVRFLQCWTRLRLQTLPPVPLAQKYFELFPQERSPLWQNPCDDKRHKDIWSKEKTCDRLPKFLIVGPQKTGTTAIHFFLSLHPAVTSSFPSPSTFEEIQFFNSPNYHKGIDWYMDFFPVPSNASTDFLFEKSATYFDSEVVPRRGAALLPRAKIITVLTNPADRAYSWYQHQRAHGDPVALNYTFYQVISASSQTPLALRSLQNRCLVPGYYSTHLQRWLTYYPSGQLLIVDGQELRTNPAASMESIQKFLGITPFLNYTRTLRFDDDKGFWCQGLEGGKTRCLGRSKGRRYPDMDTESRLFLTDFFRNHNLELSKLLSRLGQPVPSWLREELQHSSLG
# Protocol: Each of the following 6 substances to be tested was diluted to 200, 20 or 2 μg/ml using the enzyme reaction liquid 1. Quickly after addition of 25 μl of the solutions to each well of the solid phase (plate) produced in Example 9, 25 μl of an “NDST enzyme liquid diluted 40 times with the enzyme reaction liquid I” was added to each well (final concentration of each substance to be tested 100, 10 or 1 μg/ml, final dilution rate of the enzyme liquid 80 times).
# Thereafter, the enzyme reaction was effected by standing still at 37° C. for 60 minutes. In this connection, the enzyme reaction liquid 1 alone was added to the wells to which the substances to be tested were not added.
# After completion of the reaction, the wells were washed three times with T-TBS and 100 μl of a solution of the monoclonal antibody JM403 (Seikagaku Corporation) adjusted to 1 μg/ml with TBS was added to each well. Thereafter, the plate was allowed to stand still at ordinary temperature (15 to 25° C.) for 60 minutes to undergo the antigen-antibody reaction. After the reaction, the wells were washed three times with T-TBS, and 100 μl of the HRP-labeled goat anti-mouse immunoglobulin G+M antibody diluted 20000 times with TBS was added to each well. Thereafter, the plate was allowed to stand still at ordinary temperature for 60 minutes to undergo the antigen-antibody reaction.
# After the reaction, this plate was washed three times with T-TBS, and 100 μl of the TMB solution was added to each well and allowed to undergo the reaction at ordinary temperature for 30 minutes to develop a color. Thereafter, the reaction was terminated by adding 100 μl of the reaction terminating liquid to each well, and then the absorbance was measured by the same method described in Example 5. Also, the rate of change (%) was calculated by the following calculation formula. Rate of change(%)=100×((the value of absorbance when each substance to be tested is not added)−(the value of absorbance when each substance to be tested at respective concentration is added))/(the value of absorbance when each substance to be tested is not added).
# In this connection, since the monoclonal antibody JM403 binds to the GlcN residues in NAH (that is, de-N-acetylated GlcNAc residue), higher value of the detected absorbance means that the number of GlcN residues in NAH is larger (that is, the number of de-N-acetylated GlcNAc residues is larger), namely the ND activity is higher. On the contrary, lower value of the detected absorbance means that the number of GlcN residues in NAH is smaller (that is, the number of de-N-acetylated GlcNAc residues is smaller), namely the ND activity is low.
# Additionally, when a substance to be tested inhibits ND activity, the aforementioned rate of change (%) becomes a positive number. Also, higher value of the rate of change means higher ability of the substance to be tested to inhibit ND.
# [2] = system: monoclonal antibody F58-10E4; experiment: Inhibition method: monoclonal antibody F58-10E4 binding to HSBK-adhered plate in presence of N-sulfated heparosan; conditions: 20 μg/well; F58-10E4 1 μg/mL; lot as prepared
# Protocol: A polysaccharide in which biotin is bound to the reducing end of HSBK was prepared using HSBK instead of NAH and in accordance with the method described in Example 1(3). Next, this was adhered to a plate in accordance with the method described in Example 9.
# The monoclonal antibody F58-10E4 (final concentration: 1 μg/mL) and the 9 lots of N-sulfated heparosan (20 μg/well; a value corrected based on the uronic acid content obtained by the carbazole method) were added to the plate to which HSBK was adhered to effect the antigen-antibody reaction under the conditions described in Example 7, and the absorbance was measured by the method described in Example 7. This is a measurement by a so-called inhibition method. When concentration of the N-sulfated heparosan in the antigen-antibody reaction liquid is 0, substantially all of the monoclonal antibody F58-10E4 binds to the adhered HSBK and the detected absorbance becomes high.
# By regarding the absorbance when concentration of the N-sulfated heparosan in the antigen-antibody reaction liquid is 0 as “inhibition rate 0%”, and the absorbance when excess concentration of N-sulfated heparosan is present in the antigen-antibody reaction liquid as “inhibition rate 100%”, the inhibition ratio was calculated on the 9 lots of N-sulfated heparosan. […]
# The inhibition rates of these substances were also calculated in the same manner. […]
"ranking of ability to inhibit ND activity among NAH, HP, NSDS-HP and HSBK [1]",Inhibition rate (%) No treatment [2],Substance,"function to inhibit ND activity (rate of change, FIG. 8) [1]"
highest ability to inhibit ND activity,99%,Bovine kidney-derived HS [HSBK],inhibit ND activity concentration-dependently
,,Cockscomb-derived hyaluronic acid [HA],hardly possessed of the function to inhibit ND activity
lowest ability to inhibit ND activity,,N-acetyl heparosan [NAH],inhibit ND activity concentration-dependently
,,N-sulfated/completely de-O-sulfated HP [NSDS-HP],inhibit ND activity concentration-dependently
,,Partially de-N-acetylated NAH [PDNAC-NAH],hardly possessed of the function to inhibit ND activity
,,Swine small intestine-derived HP,inhibit ND activity concentration-dependently

# From US9150902B2, “Method for determination of N-deacetylase/N-sulfotransferase activity” (SEIKAGAKU CORPORATION, priority 2005, dated 2015)
